One assay has as its system N. gonorrhoeae WHO L. Nature of the assay: Liquid broth MIC in Fastidious broth. Conditions: Neisseria gonorrhoeae, read-out: Minimum Inhibitory Concentration (MIC), N. gonorrhoeae WHO L.
For the next assay, the system named is N. gonorrhoeae WHO Q. Nature of the assay: Liquid broth MIC in Fastidious broth. Conditions: Neisseria gonorrhoeae, read-out: Minimum Inhibitory Concentration (MIC), N. gonorrhoeae WHO Q.
In the next assay the test system is N. gonorrhoeae MS11. Nature of the assay: Liquid broth MIC in Fastidious broth. Conditions: Neisseria gonorrhoeae, MS11, read-out: Minimum Inhibitory Concentration (MIC), N. gonorrhoeae MS11.
The test system of a further assay is N. gonorrhoeae FA1090. Nature of the assay: Liquid broth MIC in Fastidious broth. The following applies: Neisseria gonorrhoeae, FA1090, read-out: Minimum Inhibitory Concentration (MIC), N. gonorrhoeae FA 1090.
The subject of a further assay is N. gonorrhoeae WHO K. Nature of the assay: Liquid broth MIC in Fastidious broth. The following applies: Neisseria gonorrhoeae, read-out: Minimum Inhibitory Concentration (MIC), N. gonorrhoeae WHO K.
A further assay has as its system N. gonorrhoeae CDC-0197. Nature of the assay: Liquid broth MIC in Fastidious broth. Conditions: Neisseria gonorrhoeae, CDC0197, read-out: Minimum Inhibitory Concentration (MIC), N. gonorrhoeae CDC-0197.
The test system of a further assay is E. coli D22. Nature of the assay: microbe, parasite or virus in culture. It is filed as cell-based. The following applies: Escherichia coli, D22, read-out: MIC E. coli D22.
For another assay, the system named is N. gonorrhoeae WHO M. Nature of the assay: Liquid broth MIC in Fastidious broth. Conditions: Neisseria gonorrhoeae, read-out: Minimum Inhibitory Concentration (MIC), N. gonorrhoeae WHO M.

Among the data in patent US20240270762A1, “PENICILLIN-BINDING PROTEIN INHIBITORS” (priority 2021, published 2024) are MIC values, retold here.

Values after ≈ are worked out from the molar mass of the structure shown. Bounds are passed on as bounds.

Take `O=C(O)c1cccc2c1OB(O)[C@@H](NC(=O)C(NC(=O)N1CCN(CC(F)(F)F)C(=O)C1=O)c1ccc(P(=O)(O)O)cc1)C2` (stereo partly drawn) [Example 4, (3R)-3-(2-(2,3-dioxo-4-(2,2,2-trifluoroethyl)piperazine-1-carboxamido)-2-(4-phosphonophenyl)acetamido)-2-hydroxy-3,4-dihydro-2H-benzo[e][1,2]oxaborinine-8-carboxylic acid]: the MIC with N. gonorrhoeae WHO L was 4 to 8 µg/mL (≈ 6.23 to 12.5 µM); in the assay on N. gonorrhoeae WHO Q, 1 to 2 µg/mL (≈ 1.56 to 3.11 µM); in the assay with N. gonorrhoeae MS11, less than 1 µg/mL; with N. gonorrhoeae FA1090 it was less than 1 µg/mL; in the assay with N. gonorrhoeae WHO K it was 1 to 2 µg/mL (≈ 1.56 to 3.11 µM); in the assay with N. gonorrhoeae CDC-0197 it was 1 to 2 µg/mL (≈ 1.56 to 3.11 µM). Also, the MIC in the assay on E. coli D22 is 8 to 16 µg/mL (≈ 12.5 to 24.9 µM); with N. gonorrhoeae WHO M, less than 1 µg/mL.
